Results taken from ChEMBL document CHEMBL1201862, “PubChem BioAssay data set” (2004).
The source made the active and inactive calls.

Legend:
[1] = molecular target: T1, Tyrosine-protein phosphatase non-receptor type 7 (Homo sapiens, UniProt P35236); experiment: HePTP tyrosine phosphatase activity blockers – biochemical, absorbance, leukemia target, primary screen (AID 521); format: functional
T1 sequence (P35236 whole entry): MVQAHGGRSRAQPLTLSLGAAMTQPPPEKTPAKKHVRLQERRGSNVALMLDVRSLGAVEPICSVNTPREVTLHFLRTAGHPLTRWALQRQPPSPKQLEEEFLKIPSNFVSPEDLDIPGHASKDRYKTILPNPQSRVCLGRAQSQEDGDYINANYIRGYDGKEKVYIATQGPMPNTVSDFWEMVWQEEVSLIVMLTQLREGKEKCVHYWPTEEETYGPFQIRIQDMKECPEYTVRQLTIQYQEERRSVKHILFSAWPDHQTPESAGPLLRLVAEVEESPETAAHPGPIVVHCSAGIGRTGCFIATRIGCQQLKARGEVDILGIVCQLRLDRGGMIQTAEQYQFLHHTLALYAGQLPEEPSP

[2] = viability loss in human Jurkat cells – cell-based, luminescence, cytotoxicity control for P. falciparum gametocyte viability project, dose response (AID 1117277); format: functional;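 further: potency reflects loss of cellular ATP meaning fewer viable cells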
[3] = Luminescence-based cell-based high throughput dose response assay to identify activators of the DAF-12 from the parasite S. stercoralis (ssDAF-12).; format: functional
[4] = molecular target: T2, Oxysterols receptor LXR-beta (Homo sapiens, UniProt P55055); experiment: LXR agonists, Gal4 luciferase reporter, dose response, counter-screen for ssDAF-12 agonist project, cell-based, luminescence, HEK293, S. stercoralis campaign (AID 720737); format: functional; conditions: read-out: IC50 (the source's name)
T2 sequence (P55055 whole entry): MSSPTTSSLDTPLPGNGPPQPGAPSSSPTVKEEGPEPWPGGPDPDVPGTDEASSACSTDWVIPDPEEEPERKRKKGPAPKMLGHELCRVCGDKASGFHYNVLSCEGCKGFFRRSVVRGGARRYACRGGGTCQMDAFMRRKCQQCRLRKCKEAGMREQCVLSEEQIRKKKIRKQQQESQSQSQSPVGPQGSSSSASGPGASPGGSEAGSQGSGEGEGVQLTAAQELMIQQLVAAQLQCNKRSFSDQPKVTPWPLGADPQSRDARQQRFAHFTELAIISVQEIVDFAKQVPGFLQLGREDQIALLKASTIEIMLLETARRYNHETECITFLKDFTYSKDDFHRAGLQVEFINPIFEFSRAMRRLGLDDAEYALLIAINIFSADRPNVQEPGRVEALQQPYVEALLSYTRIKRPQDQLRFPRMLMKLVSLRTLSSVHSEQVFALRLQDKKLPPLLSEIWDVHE

[5] = viability inhibitors of stage V gametocytes – luminescence, dose response (AID 1117278); format: functional, cell-based;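 further: gametocytes exposed to compound for 24 hours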
[6] = molecular target: Peroxisome proliferator-activated receptor gamma/Nuclear receptor coactivator 1 (Homo sapiens, UniProt P37231); experiment: TR-FRET dose response biochemical High Throughput Screening assay for agonists of the steroid receptor coactivator 1 (SRC-1) recruitment by the peroxisome proliferator-activated receptor gamma (PPAR gamma): non-selective agonists. [Related pubchem assays (depositor defined):AID1300, AID1808, AID504735, AID631]; format: protein assay
[7] = cells
[8] = molecular target: Peroxisome proliferator-activated receptor gamma/Nuclear receptor coactivator 2 (Homo sapiens, UniProt P37231); experiment: TR-FRET dose response biochemical High Throughput Screening assay for agonists of the steroid receptor coactivator 2 (SRC-2) recruitment by the peroxisome proliferator-activated receptor gamma (PPAR gamma): non-selective agonists. [Related pubchem assays: 1297, 1032 ]; format: functional
[9] = molecular target: Major prion protein (Homo sapiens, UniProt P04156); format: functional, cell-based
[10] = molecular target: Peroxisome proliferator-activated receptor gamma/Nuclear receptor coactivator 3 (Homo sapiens, UniProt P37231); experiment: TR-FRET dose response biochemical High Throughput Screening assay for agonists of the steroid receptor coactivator 3 (SRC-3) recruitment by the peroxisome proliferator-activated receptor gamma (PPAR gamma): non-selective agonists. [Related pubchem assays: 1301 (Confirmation screen.), 1048 (Primary screen.)]; format: functional
[11] = molecular target: Mitogen-activated protein kinase 10 (Homo sapiens, UniProt P53779); experiment: Dose response biochemical screening assay for inhibitors of c-Jun N-Terminal Kinase 3 (JNK3). [Related pubchem assays: 746 ]
[12] = molecular target: E3 ubiquitin-protein ligase Mdm2 (Homo sapiens, UniProt Q00987); experiment: MDM2-luc reporter signal enhancers, multi-concentration potency testing, MDM2 ubiquitin-protein ligase inhibitor program, whole-cell format, luminescence detection, 384-well microplate (AID 1394); format: functional;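 further: MDM2 E3 inhibitors raise luminescence so EC50 is for signal enhancement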
[13] = molecular target: Ephrin type-A receptor 4 (Mus musculus, UniProt Q03137); experiment: EphA4 ligand-binding antagonists – biochemical, colorimetric, mouse EphA4, primary screen (AID 689); format: functional
[14] = molecular target: T3, Corticotropin-releasing factor receptor 2/Corticotropin-releasing factor-binding protein (Homo sapiens, UniProt P24387+Q13324); experiment: activators of CRF receptor 2 with binding protein – uHTS hits, confirmation (AID 602473); format: functional; conditions: read-out: EC50_Mean
T3 sequence (Q13324 whole entry): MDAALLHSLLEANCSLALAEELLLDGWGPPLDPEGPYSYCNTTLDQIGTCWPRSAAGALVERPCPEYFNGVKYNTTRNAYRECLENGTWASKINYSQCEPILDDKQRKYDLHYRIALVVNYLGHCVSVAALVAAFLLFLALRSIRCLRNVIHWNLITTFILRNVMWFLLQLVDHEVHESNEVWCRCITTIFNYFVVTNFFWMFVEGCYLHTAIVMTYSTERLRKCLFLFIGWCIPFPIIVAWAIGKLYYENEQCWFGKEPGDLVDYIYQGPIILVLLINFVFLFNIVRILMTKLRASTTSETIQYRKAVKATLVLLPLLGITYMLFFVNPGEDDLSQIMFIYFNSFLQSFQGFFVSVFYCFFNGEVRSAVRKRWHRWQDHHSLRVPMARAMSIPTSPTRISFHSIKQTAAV
T3 sequence (P24387 whole entry): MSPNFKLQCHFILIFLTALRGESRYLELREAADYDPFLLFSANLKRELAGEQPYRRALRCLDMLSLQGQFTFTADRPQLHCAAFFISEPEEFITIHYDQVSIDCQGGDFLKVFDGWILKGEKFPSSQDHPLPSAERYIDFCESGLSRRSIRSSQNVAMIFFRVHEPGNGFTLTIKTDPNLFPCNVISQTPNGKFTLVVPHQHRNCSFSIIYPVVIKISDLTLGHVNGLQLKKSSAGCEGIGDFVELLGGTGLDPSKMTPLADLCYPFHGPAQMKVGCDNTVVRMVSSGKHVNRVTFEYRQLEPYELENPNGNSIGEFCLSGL

[15] = HEK-293T viability loss after treatment – luminescence, T-cell screen hits, cytotoxicity control for TCR NF-kB inhibitor project, dose response (AID 489026); format: functional, cell-based;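 further: cells exposed to compound about 14 hours before the viability readout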
[16] = tested on: BJ; experiment: cells; format: functional, cell-based; conditions: Homo sapiens
[17] = DRD fibroblast viability loss – cell-based, non-viral oncogenic, luminescence, dose response (AID 1934); format: functional; conditions: Homo sapiens
[18] = non-specific 3'UTR reporter inhibition in Clone20-Shn3RL – cell-based, Renilla luciferase, cherry-picked, counter-screen for Shn3 inhibitor project, dose response (AID 624133); format: functional
[19] = tested on: BJ; experiment: BJ-TERT-LT-ST fibroblast viability loss – cell-based, RAS-independent, luminescence, dose response (AID 1935); format: functional; conditions: Homo sapiens;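 further: BJ fibroblasts immortalized with TERT plus LT and ST oncogenes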
[20] = molecular target: T4, Heat shock factor protein 1 (Mus musculus, UniProt P38532); experiment: decrease of HSF1-responsive luciferase luminescence – cell-based, NIH3T3, dose retest, confirmation (AID 2382); format: functional;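 further: NIH3T3 fibroblasts with HSF1-driven luciferase reporter stressed by proteasome inhibitor MG132; luminescence from HSF1-driven luciferase expression after 8 hours of MG132 stress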
T4 sequence (P38532 whole entry): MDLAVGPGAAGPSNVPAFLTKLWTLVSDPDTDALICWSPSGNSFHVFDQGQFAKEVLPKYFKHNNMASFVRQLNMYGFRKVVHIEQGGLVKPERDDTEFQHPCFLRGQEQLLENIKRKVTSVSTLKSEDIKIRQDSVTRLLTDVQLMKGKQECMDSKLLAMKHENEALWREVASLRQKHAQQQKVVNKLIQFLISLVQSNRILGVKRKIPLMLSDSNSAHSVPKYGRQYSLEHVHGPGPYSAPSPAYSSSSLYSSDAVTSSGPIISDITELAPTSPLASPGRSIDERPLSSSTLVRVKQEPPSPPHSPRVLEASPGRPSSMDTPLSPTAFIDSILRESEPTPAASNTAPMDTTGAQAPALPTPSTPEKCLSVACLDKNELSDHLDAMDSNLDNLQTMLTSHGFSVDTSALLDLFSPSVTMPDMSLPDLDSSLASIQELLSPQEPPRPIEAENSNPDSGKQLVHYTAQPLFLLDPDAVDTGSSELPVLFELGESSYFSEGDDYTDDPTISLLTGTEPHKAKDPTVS

[21] = reduction of Shn3 3'UTR-driven luciferase in osteoblasts – cell-based, Clone20 osteoblasts, firefly luciferase, cherry-picked, dose response (AID 624132); format: functional;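 further: firefly luciferase luminescence from reporter carrying the Shn3 3'UTR in osteoblasts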
[22] = tested on: BJ; experiment: BJ-TERT fibroblast viability loss – cell-based, RAS-independent, luminescence, dose response (AID 1933); format: functional; conditions: Homo sapiens
[23] = loss of viability in HepG2 cells – cell-based, CellTiter-Glo, cherry-picked, cytotoxicity control for Shn3 inhibitor project, dose response (AID 624134); format: functional
[24] = Luminescence Cell-Based Dose Response to Identify Activators of Luciferase Translation or Activity in H4-C Neuroglioblastoma Cells. [Related pubchem assays: 1829 (Project Summary), 1814 (Primary HTS)]; format: functional
[25] = Luminescence Cell-Based Dose Confirmation HTS to Identify Activators of 5'UTR Stem-Loop Driven Alpha-Synuclein mRNA Translation in H4 Neuroglioblastoma Cells. [Related pubchem assays: 1829 (Project Summary), 1814 (Primary HTS)]; format: functional
[26] = Luminescence Cell-Based Dose Response HTS to Identify Activators of Luciferase Translation or Activity in H4 […] Cells. [Related pubchem assays: 1829 (Project Summary), 1814 (Primary HTS)]; format: functional
[27] = molecular target: T2, Oxysterols receptor LXR-beta; format: functional, cell-based
[28] = cells; remark: listed apart in the source
[29] = Luminescence Cell-Based Dose Confirmation to Identify Activators of 5'UTR Stem-Loop Driven Alpha-Synuclein mRNA Translation in H4 Neuroglioblastoma Cells. [Related pubchem assays: 1829 (Project Summary), 1814 (Primary HTS)]; format: functional
[30] = tested on: H4; experiment: Luminescence Cell-Based Dose Response HTS to Identify Activators of 5'UTR Stem-Loop Driven Prion Protein mRNA Translation in H4 Neuroglioblastoma Cells. [Related pubchem assays: 1829 (Project Summary), 1814 (Primary HTS)]; format: functional; conditions: Homo sapiens
[31] = Luminescence Cell-Based Dose Response to Identify Activators of 5'UTR Stem-Loop Driven Prion Protein mRNA Translation in H4-C Neuroglioblastoma Cells. [Related pubchem assays: 1829 (Project Summary), 1814 (Primary HTS)]; format: functional
[32] = HGIII-sPLA2 enzyme inhibition potency – biochemical, QFRET, IC50, dose response (AID 743457);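 further: green fluorescence rise as the enzyme cleaves BODIPY PC-A2 in liposomes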
[33] = microbe, parasite or virus in culture; format: functional; conditions: Mycobacterium tuberculosis
[34] = molecular target: T3, Corticotropin-releasing factor receptor 2/Corticotropin-releasing factor-binding protein; experiment: Dose Response confirmation of uHTS hits for small molecule antagonists of the CRF-binding protein and CRF-R2 receptor complex.; format: functional; conditions: read-out: IC50_Mean

SMILES: COc1ccc(NC(=O)C2CCCN(S(=O)(=O)c3cccnc3)C2)cc1 (stereo not drawn)
- IC50 [1]: > 100 µM (not active)

SMILES: O=C(NCCc1c[nH]c2ccccc12)c1cnccn1
- IC50 [2]: > 83.3 µM (inactive)
- IC50 [3]: > 67.5 µM (inactive)
- EC50 [4]: > 67.5 µM (inactive)
- IC50 [5]: > 109 µM (inactive)

SMILES: Cc1ccccc1-c1nnc(S)o1
- EC50 [6]: 71.9 µM (inactive)
- IC50 [7]: > 138 µM (inactive)
- EC50 [8]: 9.69 µM (active)
- IC50 [9]: 5.75 µM (active)
- EC50 [10]: > 79.4 µM (not active)
- IC50 [11]: 55.5 µM (not active)

SMILES: Cc1cc(NC(=O)C2CC2)ncc1NC(=O)C12CC3CC(CC(C3)C1)C2
- EC50 [12]: 15.7 µM (not active)

SMILES: Cc1cc(COc2ccccc2OCCN2CCN(C)CC2)no1
- IC50 [1]: > 100 µM (not active)

SMILES: C=CCn1c(=O)/c(=C/c2cc(OC)c(OC)c(OC)c2)s/c1=C(/C#N)c1nc2ccccc2n1C
- IC50 [13]: > 100 µM (not active)
- EC50 [14]: 13.3 µM (active)

SMILES: C=CCSc1nc2ccccc2n1C(=O)/C=C/c1cc(OC)c(OC)c(OC)c1
- IC50 [15]: 71.8 µM (inactive)
- EC50 [16]: > 150 µM (inconclusive)
- EC50 [12]: 0.27 µM (active)
- EC50 [17]: 2.66 µM (active)
- AC50 [18]: 14.2 µM (active)
- EC50 [19]: 3.4 µM (active)
- EC50 [20]: 10.3 µM (inconclusive)
- AC50 [21]: 1.13 µM (active)
- EC50 [22]: 2.56 µM (inconclusive)
- AC50 [23]: 63.8 µM (active)

SMILES: O=C(c1ccc2c(=O)n(Cc3ccc4c(c3)OCO4)c(=S)[nH]c2c1)N1CCCCC1
- IC50 [13]: > 100 µM (not active)

SMILES: N#Cc1c(O)nc(SCc2ccc(F)cc2)nc1-c1ccco1
- IC50 [7]: > 138 µM (inactive)
- IC50 [9]: 1.02 µM (active)
- IC50 [11]: 13.6 µM (not active)

SMILES: C=CCS/C(N)=N\N=C\c1c(O)ccc2ccccc12
- EC50 [24]: 0.324 µM (active)
- EC50 [25]: 9.96 µM (active)
- EC50 [26]: 0.902 µM (active)
- EC50 [27]: > 67.5 µM (inactive)
- EC50 [28]: > 67.5 µM (inactive)
- EC50 [29]: 0.426 µM (active)
- EC50 [30]: < 0.1 µM (active)
- EC50 [31]: 0.313 µM (active)
- IC50 [32]: > 122 µM (inactive)
- CC50 [33]: > 40 µM (active)

SMILES: CCCc1n[nH]c(SCc2ccc(Cl)cc2Cl)n1
- IC50 [34]: > 47.1 µM (inactive)
- IC50 [2]: > 83.3 µM (inactive)
- IC50 [5]: > 109 µM (inactive)
- EC50 [14]: > 53 µM (inactive)
